Data from patent US20100216779A1 (GLAXOSMITHKLINE LLC, priority 2007, published 2010).

Tests used:
Type in all cases: cell-based
[1] = target: T1, human IGF-1R (NIH-3T3 cells over expressing human IGF-1R) (Homo sapiens, UniProt P08069); assay: IGF-1R cellular autophosphorylation (DELFIA); details: IGF-1 stimulated
T1 construct: expressed in transfected cells; host or cells: NIH-3T3 (mouse fibroblasts)
Procedure, shortened: (§1)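 Receptor-overexpressing NIH-3T3, 10% FBS, 37 °C; cpd 30 uM–1.5 nM × 2 h; stim IGF-1 30 ng/mL (IGF-1R) or insulin 3 ug/mL (IR), 15 min; lysate DELFIA, Eu anti-pTyr; % of stimulated signal.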

COLO205 (colon) = assay: Inhibition of cell proliferation, CellTiter-Glo, COLO205; details: Homo sapiens, COLO 205, 72 h
Procedure, shortened: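 Exponentially growing COLO205 cells in medium with 10% FBS were plated below 2000 cells/well at 37 °C, 5% CO2. Untreated wells served as controls.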

[2] = target: T2, IR (NIH-3T3 cells over expressing human IGF-1R or IR) (Homo sapiens, UniProt P06213); assay: IR cellular autophosphorylation (DELFIA); details: NIH-3T3 cells over expressing IR, insulin stimulated
T2 construct: expressed in transfected cells; host or cells: NIH-3T3 (mouse fibroblasts)
Procedure, shortened: as §1

[3] = test system: NCI-H929 (multiple myeloma); assay: Inhibition of cell proliferation, CellTiter-Glo, NCI-H929; details: Homo sapiens, 72 h
Procedure, shortened: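 Cells were grown in medium with 10% FBS at 37° C, 5% CO2. Cell number was read as CellTiter-Glo luminescence (cellular ATP), with untreated wells as control.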

T2 sequence (P06213 28-1382): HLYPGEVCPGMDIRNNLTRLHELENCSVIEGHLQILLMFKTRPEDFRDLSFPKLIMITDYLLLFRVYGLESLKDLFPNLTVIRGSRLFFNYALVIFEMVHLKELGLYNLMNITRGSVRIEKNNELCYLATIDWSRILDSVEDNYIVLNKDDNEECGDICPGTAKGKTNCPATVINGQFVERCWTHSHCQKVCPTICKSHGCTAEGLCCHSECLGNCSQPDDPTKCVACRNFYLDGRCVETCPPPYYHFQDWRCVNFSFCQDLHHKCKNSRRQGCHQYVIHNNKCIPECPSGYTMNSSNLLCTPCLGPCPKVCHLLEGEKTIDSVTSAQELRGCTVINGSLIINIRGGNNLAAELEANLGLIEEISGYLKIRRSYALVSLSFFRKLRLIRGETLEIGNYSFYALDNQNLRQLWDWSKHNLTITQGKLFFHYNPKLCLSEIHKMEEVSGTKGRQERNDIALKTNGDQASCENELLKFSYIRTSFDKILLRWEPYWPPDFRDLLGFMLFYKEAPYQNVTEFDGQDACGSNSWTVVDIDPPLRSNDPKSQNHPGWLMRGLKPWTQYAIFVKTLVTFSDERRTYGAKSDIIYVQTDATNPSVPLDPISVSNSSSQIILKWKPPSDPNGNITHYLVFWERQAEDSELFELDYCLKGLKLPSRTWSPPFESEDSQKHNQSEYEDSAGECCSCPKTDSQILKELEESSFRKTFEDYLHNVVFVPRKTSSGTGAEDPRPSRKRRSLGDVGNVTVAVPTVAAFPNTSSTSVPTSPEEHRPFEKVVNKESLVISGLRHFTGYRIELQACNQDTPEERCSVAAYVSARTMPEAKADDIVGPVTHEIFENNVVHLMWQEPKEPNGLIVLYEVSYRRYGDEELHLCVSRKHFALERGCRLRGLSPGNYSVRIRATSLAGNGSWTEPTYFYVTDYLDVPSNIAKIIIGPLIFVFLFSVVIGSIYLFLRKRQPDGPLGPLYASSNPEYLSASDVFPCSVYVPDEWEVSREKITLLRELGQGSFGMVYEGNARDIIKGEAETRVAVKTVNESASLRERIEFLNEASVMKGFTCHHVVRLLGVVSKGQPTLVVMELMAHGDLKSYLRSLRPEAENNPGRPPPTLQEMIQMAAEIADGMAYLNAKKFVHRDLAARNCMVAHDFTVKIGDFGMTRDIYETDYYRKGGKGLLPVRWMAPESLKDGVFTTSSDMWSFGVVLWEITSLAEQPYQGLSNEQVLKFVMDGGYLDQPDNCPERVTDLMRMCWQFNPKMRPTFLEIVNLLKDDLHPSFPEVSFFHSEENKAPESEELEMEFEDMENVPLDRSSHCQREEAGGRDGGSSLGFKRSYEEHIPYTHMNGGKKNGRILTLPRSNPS
T1 sequence (P08069 31-1367): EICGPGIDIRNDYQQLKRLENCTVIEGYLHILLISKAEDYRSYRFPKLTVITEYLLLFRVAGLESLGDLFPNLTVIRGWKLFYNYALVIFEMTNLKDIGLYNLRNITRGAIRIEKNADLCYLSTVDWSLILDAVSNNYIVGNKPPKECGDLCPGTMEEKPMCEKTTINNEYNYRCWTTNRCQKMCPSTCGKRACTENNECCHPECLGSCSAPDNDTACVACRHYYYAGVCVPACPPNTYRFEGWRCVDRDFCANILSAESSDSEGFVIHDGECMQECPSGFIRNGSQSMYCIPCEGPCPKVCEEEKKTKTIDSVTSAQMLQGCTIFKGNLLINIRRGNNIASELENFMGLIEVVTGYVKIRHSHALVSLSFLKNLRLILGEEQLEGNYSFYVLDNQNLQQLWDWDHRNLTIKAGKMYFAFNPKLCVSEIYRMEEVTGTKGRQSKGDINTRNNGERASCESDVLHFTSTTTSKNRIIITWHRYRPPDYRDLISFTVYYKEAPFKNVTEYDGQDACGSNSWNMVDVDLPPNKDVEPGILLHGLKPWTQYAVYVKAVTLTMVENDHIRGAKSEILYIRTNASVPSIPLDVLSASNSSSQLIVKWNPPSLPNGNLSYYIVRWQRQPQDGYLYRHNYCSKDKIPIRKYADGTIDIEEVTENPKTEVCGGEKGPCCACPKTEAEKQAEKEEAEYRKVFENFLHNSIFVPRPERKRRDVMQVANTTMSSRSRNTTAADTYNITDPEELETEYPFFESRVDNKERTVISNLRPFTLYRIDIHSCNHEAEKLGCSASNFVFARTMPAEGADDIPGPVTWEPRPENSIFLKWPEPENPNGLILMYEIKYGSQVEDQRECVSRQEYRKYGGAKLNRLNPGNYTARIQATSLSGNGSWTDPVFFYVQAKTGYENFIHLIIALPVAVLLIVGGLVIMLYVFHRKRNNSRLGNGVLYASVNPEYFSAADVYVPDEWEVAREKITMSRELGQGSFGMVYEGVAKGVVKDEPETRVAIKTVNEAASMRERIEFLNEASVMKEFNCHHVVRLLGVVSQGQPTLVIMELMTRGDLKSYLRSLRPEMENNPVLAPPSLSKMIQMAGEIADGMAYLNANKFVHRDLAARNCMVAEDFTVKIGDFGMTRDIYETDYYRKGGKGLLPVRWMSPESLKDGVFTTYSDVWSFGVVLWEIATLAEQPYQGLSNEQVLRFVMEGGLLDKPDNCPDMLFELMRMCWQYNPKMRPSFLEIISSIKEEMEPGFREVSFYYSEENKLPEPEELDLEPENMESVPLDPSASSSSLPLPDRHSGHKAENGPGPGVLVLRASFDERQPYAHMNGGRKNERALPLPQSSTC

Molecule `CCOc1ccc(-c2nc3ccccn3c2-c2ccnc(Nc3ccc(C4CCN(CC(C)C)CC4)cc3OC)n2)cc1C(=O)Nc1c(F)cccc1F` [Example 161, N-(2,6-difluorophenyl)-2-(ethyloxy)-5-{3-[2-({2-(methyloxy)-4-[1-(2-methylpropyl)-4-piperidinyl]phenyl}amino)-4-pyrimidinyl]imidazo[1,2-a]pyridin-2-yl}benzamide] has an IC50 [1] of under 100 nM, an IC50 (COLO205 (colon)) of 250 to 1000 nM and an IC50 [2] of under 100 nM. The IC50 [3] was under 250 nM.
Work on `COc1cc(C2CCN(CC(C)C)CC2)ccc1Nc1nccc(-c2c(-c3cccc(C(=O)Nc4c(F)cccc4F)c3)nc3ccccn23)n1` [Example 162, N-(2,6-difluorophenyl)-3-{3-[2-({2-(methyloxy)-4-[1-(2-methylpropyl)-4-piperidinyl]phenyl}amino)-4-pyrimidinyl]imidazo[1,2-a]pyridin-2-yl}benzamide] yielded an IC50 [1] of under 100 nM, an IC50 (COLO205 (colon)) of 250 to 1000 nM and an IC50 [2] of under 100 nM. It also gave an IC50 [3] of under 250 nM.
Molecule `COc1cc(C2CCN(CCS(C)(=O)=O)CC2)c(C)cc1Nc1nccc(-c2c(-c3ccc(OC)c(C(=O)Nc4c(F)cccc4F)c3)nc3ccccn23)n1` [Example 163, N-(2,6-difluorophenyl)-5-(3-{2-[(5-methyl-2-(methyloxy)-4-{1-[2-(methylsulfonyl)ethyl]-4-piperidinyl}phenyl)amino]-4-pyrimidinyl}imidazo[1,2-a]pyridin-2-yl)-2-(methyloxy)benzamide] has an IC50 [1] of under 100 nM, an IC50 (COLO205 (colon)) of 250 to 1000 nM and an IC50 [2] of under 100 nM. For the same molecule, the IC50 [3] was under 250 nM.
With `CCOc1ccc(-c2nc3ccccn3c2-c2ccnc(Nc3cc(C)c(C4CCN(CCS(C)(=O)=O)CC4)cc3OC)n2)cc1C(=O)Nc1c(F)cccc1F` [Example 164, N-(2,6-difluorophenyl)-2-(ethyloxy)-5-(3-{2-[(5-methyl-2-(methyloxy)-4-{1-[2-(methylsulfonyl)ethyl]-4-piperidinyl}phenyl)amino]-4-pyrimidinyl}imidazo[1,2-a]pyridin-2-yl)benzamide] the IC50 [1] was under 100 nM, the IC50 (COLO205 (colon)) was under 250 nM and the IC50 [2] was under 100 nM. It also gave an IC50 [3] of under 250 nM.
`COc1cc(C2CCN(CCS(C)(=O)=O)CC2)c(C)cc1Nc1nccc(-c2c(-c3cccc(C(=O)Nc4c(F)cccc4F)c3)nc3ccccn23)n1` [Example 165, N-(2,6-difluorophenyl)-3-(3-{2-[(5-methyl-2-(methyloxy)-4-{1-[2-(methylsulfonyl)ethyl]-4-piperidinyl}phenyl)amino]-4-pyrimidinyl}imidazo[1,2-a]pyridin-2-yl)benzamide] gave an IC50 [1] of under 100 nM, an IC50 (COLO205 (colon)) of 250 to 1000 nM and an IC50 [2] of under 100 nM. The IC50 [3] was under 250 nM.
For `CCCc1cc(C2CCN(CCS(C)(=O)=O)CC2)ccc1Nc1nccc(-c2c(-c3cccc(C(=O)Nc4c(F)cccc4F)c3)nc3ccccn23)n1` [Example 166, N-(2,6-difluorophenyl)-3-(3-{2-[(4-{1-[2-(methylsulfonyl)ethyl]-4-piperidinyl}-2-propylphenyl)amino]-4-pyrimidinyl}imidazo[1,2-a]pyridin-2-yl)benzamide], the IC50 [1] was under 100 nM, the IC50 (COLO205 (colon)) was 250 to 1000 nM and the IC50 [2] was 100 to 500 nM. It also gave an IC50 [3] of 250 to 1000 nM.
In the case of `CCCc1cc(C2CCN(CCS(C)(=O)=O)CC2)ccc1Nc1nccc(-c2c(-c3ccc(OC)c(C(=O)Nc4c(F)cccc4F)c3)nc3ccccn23)n1` [Example 167, N-(2,6-difluorophenyl)-2-(methyloxy)-5-(3-{2-[(4-{1-[2-(methylsulfonyl)ethyl]-4-piperidinyl}-2-propylphenyl)amino]-4-pyrimidinyl}imidazo[1,2-a]pyridin-2-yl)benzamide], the IC50 [1] is reported as under 100 nM, the IC50 (COLO205 (colon)) is reported as over 1000 nM and the IC50 [2] is reported as under 100 nM. For the same molecule, the IC50 [3] was over 1000 nM.
Work on `CCCc1cc(C2CCN(CCS(C)(=O)=O)CC2)ccc1Nc1nccc(-c2c(-c3ccc(OCC)c(C(=O)Nc4c(F)cccc4F)c3)nc3ccccn23)n1` [Example 168, N-(2,6-difluorophenyl)-2-(ethyloxy)-5-(3-{2-[(4-{1-[2-(methylsulfonyl)ethyl]-4-piperidinyl}-2-propylphenyl)amino]-4-pyrimidinyl}imidazo[1,2-a]pyridin-2-yl)benzamide] yielded an IC50 [1] of under 100 nM, an IC50 (COLO205 (colon)) of 250 to 1000 nM and an IC50 [2] of under 100 nM. It also gave an IC50 [3] of under 250 nM.
Molecule `CCOc1cc(N2CCN(C(C)C)CC2)ccc1Nc1nccc(-c2c(-c3cccc(C(=O)Nc4c(F)cccc4F)c3)nc3ccccn23)n1` [Example 171, N-(2,6-difluorophenyl)-3-{3-[2-({2-(ethyloxy)-4-[4-(1-methylethyl)-1-piperazinyl]phenyl}amino)-4-pyrimidinyl]imidazo[1,2-a]pyridin-2-yl}benzamide] has an IC50 [1] of under 100 nM, an IC50 (COLO205 (colon)) of 250 to 1000 nM and an IC50 [2] of under 100 nM. For the same molecule, the IC50 [3] was 250 to 1000 nM.
`CCOc1cc(N2CCN(C(C)C)CC2)ccc1Nc1nccc(-c2c(-c3ccc(OC)c(C(=O)Nc4c(F)cccc4F)c3)nc3ccccn23)n1` [Example 172, N-(2,6-difluorophenyl)-5-{3-[2-({2-(ethyloxy)-4-[4-(1-methylethyl)-1-piperazinyl]phenyl}-amino)-4-pyrimidinyl]imidazo[1,2-a]pyridin-2-yl}-2-(methyloxy)benzamide] gave an IC50 [1] of under 100 nM, an IC50 (COLO205 (colon)) of 250 to 1000 nM and an IC50 [2] of under 100 nM. For the same molecule, the IC50 [3] was under 250 nM.
For `CCCN1CCN(c2ccc(Nc3nccc(-c4c(-c5cccc(C(=O)Nc6c(F)cccc6F)c5)nc5ccccn45)n3)c(OC)c2)CC1` [Example 173, N-(2,6-difluorophenyl)-3-[3-(2-{[2-(methyloxy)-4-(4-propyl-1-piperazinyl)phenyl]amino}-4-pyrimidinyl)imidazo[1,2-a]pyridin-2-yl]benzamide], the IC50 [1] was under 100 nM, the IC50 (COLO205 (colon)) was 250 to 1000 nM and the IC50 [2] was under 100 nM. It also gave an IC50 [3] of 250 to 1000 nM.
For `CCCN1CCN(c2ccc(Nc3nccc(-c4c(-c5ccc(OC)c(C(=O)Nc6c(F)cccc6F)c5)nc5ccccn45)n3)c(OC)c2)CC1` [Example 174, N-(2,6-difluorophenyl)-2-(methyloxy)-5-[3-(2-{[2-(methyloxy)-4-(4-propyl-1-piperazinyl)phenyl]amino}-4-pyrimidinyl)imidazo[1,2-a]pyridin-2-yl]benzamide], the IC50 [1] was under 100 nM, the IC50 (COLO205 (colon)) was 250 to 1000 nM and the IC50 [2] was under 100 nM. The IC50 [3] was under 250 nM.
With `COc1cc(N2CCN(C(C)C)CC2)ccc1Nc1nccc(-c2c(-c3ccc(OC)c(C(=O)Nc4c(F)cccc4F)c3)nc3ccccn23)n1` [Example 176, N-(2,6-difluorophenyl)-5-[3-(2-{[4-[4-(1-methylethyl)-1-piperazinyl]-2-(methyloxy)phenyl]-amino}-4-pyrimidinyl)imidazo[1,2-a]pyridin-2-yl]-2-(methyloxy)benzamide] the IC50 [1] was under 100 nM, the IC50 (COLO205 (colon)) was 250 to 1000 nM and the IC50 [2] was under 100 nM. For the same molecule, the IC50 [3] was under 250 nM.
In the case of `CCOc1ccc(-c2nc3ccccn3c2-c2ccnc(Nc3ccc(N4CCN(C(C)C)CC4)cc3OC)n2)cc1C(=O)Nc1c(F)cccc1F` [Example 177, N-(2,6-difluorophenyl)-2-(ethyloxy)-5-[3-(2-{[4-[4-(1-methylethyl)-1-piperazinyl]-2-(methyloxy)phenyl]amino}-4-pyrimidinyl)imidazo[1,2-a]pyridin-2-yl]benzamide], the IC50 [1] is reported as under 100 nM, the IC50 (COLO205 (colon)) is reported as 250 to 1000 nM and the IC50 [2] is reported as under 100 nM. The IC50 [3] was under 250 nM.
In the case of `CCCN1CCN(c2ccc(Nc3nccc(-c4c(-c5ccc(OCC)c(C(=O)Nc6c(F)cccc6F)c5)nc5ccccn45)n3)c(OC)c2)CC1` [Example 178, N-(2,6-difluorophenyl)-2-(ethyloxy)-5-[3-(2-{[2-(methyloxy)-4-(4-propyl-1-piperazinyl)phenyl]amino}-4-pyrimidinyl)imidazo[1,2-a]pyridin-2-yl]benzamide], the IC50 [1] is reported as under 100 nM, the IC50 (COLO205 (colon)) is reported as 250 to 1000 nM and the IC50 [2] is reported as under 100 nM. For the same molecule, the IC50 [3] was under 250 nM.
With `COc1cc(C2CCN(CCS(C)(=O)=O)CC2)ccc1Nc1nccc(-c2c(-c3cccc(C(=O)Nc4c(F)cccc4F)c3)nc3ccccn23)n1` [Example 180, N-(2,6-difluorophenyl)-3-(3-{2-[(2-(methyloxy)-4-{1-[2-(methylsulfonyl)ethyl]-4-piperidinyl}phenyl)amino]-4-pyrimidinyl}imidazo[1,2-a]pyridin-2-yl)benzamide] the IC50 [1] was under 100 nM, the IC50 (COLO205 (colon)) was 250 to 1000 nM and the IC50 [2] was under 100 nM. The IC50 [3] was under 250 nM.
`CCOc1cc(C2CCN(CCS(C)(=O)=O)CC2)ccc1Nc1nccc(-c2c(-c3ccc(OCC)c(C(=O)Nc4c(F)cccc4F)c3)nc3ccccn23)n1` [Example 185, N-(2,6-difluorophenyl)-2-(ethyloxy)-5-(3-{2-[(2-(ethyloxy)-4-{1-[2-(methylsulfonyl)ethyl]-4-piperidinyl}phenyl)amino]-4-pyrimidinyl}imidazo[1,2-a]pyridin-2-yl)benzamide] showed an IC50 [1] of under 100 nM, an IC50 (COLO205 (colon)) of under 250 nM and an IC50 [2] of under 100 nM. The IC50 [3] was under 250 nM.
In the case of `COc1cc(N2CCC(N3CCN(CCF)CC3)CC2)ccc1Nc1nccc(-c2c(-c3cccc(C(=O)Nc4c(F)cccc4F)c3)nc3c(F)cccn23)n1` [Example 188, N-(2,6-difluorophenyl)-3-[8-fluoro-3-(2-{[4-{4-[4-(2-fluoroethyl)-1-piperazinyl]-1-piperidinyl}-2-(methyloxy)phenyl]amino}-4-pyrimidinyl)imidazo[1,2-a]pyridin-2-yl]benzamide], the IC50 [1] is reported as under 100 nM, the IC50 (COLO205 (colon)) is reported as over 1000 nM and the IC50 [2] is reported as 100 to 500 nM. It also gave an IC50 [3] of 250 to 1000 nM.
